# The source made the active and inactive calls. No cut-off for these calls is given here.
# Tests used:
# [1] = biological target: T1, Cyclin-dependent kinase 4 (Homo sapiens, UniProt P11802); assay: Inhibition of CDK4 (unknown origin)
# [2] = test system: NCI-H460; assay: Induction of cell cycle arrest in human NCI-H460 cells assessed as accumulation of cells at G2 phase at 2 uM incubated for 48 hrs by PI staining based flow cytometric analysis (reference value: 11.0 %); format: functional
# [3] = test system: NCI-H460; assay: Induction of apoptosis in human NCI-H460 cells assessed as necrotic cells at 8 uM incubated for 48 hrs by Annexin V-PE/7-AAD staining based flow cytometric analysis (reference value: 0.79 %); format: functional
# [4] = test system: NCI-H460; assay: Induction of cell cycle arrest in human NCI-H460 cells assessed as accumulation of cells at G1 phase at 2 uM incubated for 48 hrs by PI staining based flow cytometric analysis (reference value: 56.7 %); format: functional
# [5] = test system: NCI-H460; assay: Induction of autophagy in human NCI-H460 cells assessed as colocalization of LC3B site with LAMP1 protein incubated for 24 hrs by immunofluorescence analysis; format: functional, cell-based; settings: dose 2-8 µM
# [6] = test system: NCI-H460; assay: Antitumor activity against human NCI-H460 cells xenografted in female BALB/c nude mouse assessed as tumor growth inhibition at 25 mg/kg, ip administered for 21 consecutive days relative to control; format: functional; settings: NCI-H460, 504 h, time 21 day, read-out: TGI
# [7] = test system: NCI-H460; assay: Induction of autophagy in human NCI-H460 cells assessed as increase in autophagosomes incubated for 48 hrs by MDC staining and LC3B immunofluorescence analysis; format: functional, cell-based; settings: dose 2-8 µM
# [8] = test system: NCI-H460; assay: Induction of autophagy in human NCI-H460 cells assessed as reduction in intracellular PI3K protein expression; format: functional, cell-based
# [9] = test system: NCI-H460; assay: Induction of autophagy in human NCI-H460 cells assessed as production of autophagic vesicles at 4 uM incubated for 24 hrs by transmission electron microscopic analysis; format: functional, cell-based
# [10] = test system: L02; assay: Cytotoxicity against human LO2 cells assessed as inhibition of cell viability at 5 to 10 uM incubated for 48 hrs by MTT assay; format: toxicity, cell-based; settings: l02, 48 h, dose 5-10 µM
# [11] = test system: NCI-H460; assay: Induction of apoptosis in human NCI-H460 cells assessed as necrotic cells at 4 uM incubated for 48 hrs by Annexin V-PE/7-AAD staining based flow cytometric analysis (reference value: 0.79 %); format: functional
# [12] = test system: NCI-H460; assay: Induction of apoptosis in human NCI-H460 cells assessed as early apoptotic cells at 8 uM incubated for 48 hrs by Annexin V-PE/7-AAD staining based flow cytometric analysis (reference value: 3.58 %); format: functional
# [13] = test system: NCI-H460; assay: Induction of cell cycle arrest in human NCI-H460 cells assessed as accumulation of cells at G2 phase at 8 uM incubated for 48 hrs by PI staining based flow cytometric analysis (reference value: 11.0 %); format: functional
# [14] = test system: NCI-H460; assay: Induction of cell cycle arrest in human NCI-H460 cells assessed as accumulation of cells at G2 phase at 4 uM incubated for 48 hrs by PI staining based flow cytometric analysis (reference value: 11.0 %); format: functional
# [15] = test system: MCF-10A; assay: Cytotoxicity against human MCF-10A cells assessed as cell viability at 5 to 10 uM incubated for 48 hrs by MTT assay; format: toxicity, cell-based; settings: dose 5-10 µM
# [16] = test system: NCI-H460; assay: Cytotoxicity against human NCI-H460 cells measured up to 8 days; format: functional, cell-based; settings: dose 2-8 µM, time <= 8.0 day
# [17] = test system: NCI-H460; assay: Induction of autophagy in human NCI-H460 cells assessed as production of autophagic lysosomes at 4 uM incubated for 24 hrs by transmission electron microscopic analysis; format: functional, cell-based
# [18] = test system: NCI-H460; assay: Antitumor activity against human NCI-H460 cells xenografted in female BALB/c nude mouse assessed as reduction in P-RB expression at 50 mg/kg, ip administered for 21 consecutive days by immunohistochemical analysis; format: functional, organism-based; settings: time 21.0 day
# [19] = Toxicity in mouse assessed as body weight change at 100 to 400 mg/kg, ip measured for 21 days; format: organism-based; settings: in vivo, 504 h, dose 100-400 mg/kg, time 21 day
# [20] = Apparent volume of distribution in male Sprague-Dawley rat at 5 mg/kg, iv measured up to 24 hrs by LC-MS/MS analysis; format: ADME, organism-based; settings: in vivo, read-out: Vz
# [21] = MRT (0 to infinity) in male Sprague-Dawley rat at 5 mg/kg, iv measured up to 24 hrs by LC-MS/MS analysis; format: ADME, organism-based; settings: in vivo
# [22] = AUC (0 to infinity) in male Sprague-Dawley rat at 5 mg/kg, iv measured up to 24 hrs by LC-MS/MS analysis; format: ADME, organism-based; settings: in vivo
# [23] = test system: NCI-H460; assay: Antitumor activity against human NCI-H460 cells xenografted in female BALB/c nude mouse assessed as reduction in c-Myc expression at 50 mg/kg, ip administered for 21 consecutive days by immunohistochemical analysis; format: functional, organism-based; settings: time 21.0 day
# [24] = test system: NCI-H460; assay: Induction of autophagy in human NCI-H460 cells assessed as upregulation of beclin 1 level; format: functional, cell-based
# [25] = Toxicity in mouse assessed as histological change in kidney at 400 mg/kg, ip measured for 21 days by H and E staining based analysis; format: organism-based; settings: in vivo, 504 h, time 21 day
# [26] = test system: NCI-H460; assay: Induction of cell cycle arrest in human NCI-H460 cells assessed as accumulation of cells at G1 phase at 4 uM incubated for 48 hrs by PI staining based flow cytometric analysis (reference value: 56.7 %); format: functional
# [27] = test system: NCI-H460; assay: Induction of autophagy in human NCI-H460 cells assessed as increase in LC3-II expression incubated for 48 hrs by Western blotting analysis; format: functional, cell-based; settings: dose 2-8 µM
# [28] = test system: NCI-H460; assay: Induction of apoptosis in human NCI-H460 cells assessed as late apoptotic cells at 8 uM incubated for 48 hrs by Annexin V-PE/7-AAD staining based flow cytometric analysis (reference value: 3.76 %); format: functional
# [29] = test system: NCI-H460; assay: Antitumor activity against human NCI-H460 cells xenografted in female BALB/c nude mouse assessed as suppression of tumor volume at 50 mg/kg, ip administered for 21 consecutive days; format: functional, organism-based; settings: time 21.0 day
# [30] = test system: NCI-H1299; assay: cells; settings: Homo sapiens, NCI-H1299, 48 h
# Description: Antitumor activity against human NCI-H1299 cells assessed as inhibition of cell viability incubated for 48 hrs by MTT assay
# [31] = Clearance in male Sprague-Dawley rat at 5 mg/kg, iv measured up to 24 hrs by LC-MS/MS analysis; format: ADME, organism-based; settings: in vivo
# [32] = test system: NCI-H460; assay: Antiproliferative activity against human NCI-H460 cells assessed as decrease in c-myc expression at 2 to 8 uM treated for 24 hrs by immunofluorescence analysis; format: functional, cell-based; settings: dose 2-8 µM
# [33] = test system: NCI-H460; assay: Induction of autophagy in human NCI-H460 cells assessed as increase in vacuole formation incubated for 12 hrs by microscopic analysis; format: functional, cell-based
# [34] = test system: NCI-H460; assay: Induction of cell cycle arrest in human NCI-H460 cells assessed as accumulation of cells at S phase at 8 uM incubated for 48 hrs by PI staining based flow cytometric analysis (reference value: 33.3 %); format: functional
# [35] = biological target: T1, Cyclin-dependent kinase 4; assay: Binding affinity to CDK4 in human NCI-H460 cells assessed as increase in thermal stabilization at 38 to 62 degreeC at 1 uM pretreated for 6 hrs followed by heat exposure for 3 mins and subsequently incubated at room temperature for 3 mins by CETSA; format: cell-based; settings: time 366.0 min
# [36] = test system: NCI-H460; assay: Induction of cell cycle arrest in human NCI-H460 cells assessed as accumulation of cells at S phase at 4 uM incubated for 48 hrs by PI staining based flow cytometric analysis (reference value: 33.3 %); format: functional
# T1 sequence (P11802 whole entry): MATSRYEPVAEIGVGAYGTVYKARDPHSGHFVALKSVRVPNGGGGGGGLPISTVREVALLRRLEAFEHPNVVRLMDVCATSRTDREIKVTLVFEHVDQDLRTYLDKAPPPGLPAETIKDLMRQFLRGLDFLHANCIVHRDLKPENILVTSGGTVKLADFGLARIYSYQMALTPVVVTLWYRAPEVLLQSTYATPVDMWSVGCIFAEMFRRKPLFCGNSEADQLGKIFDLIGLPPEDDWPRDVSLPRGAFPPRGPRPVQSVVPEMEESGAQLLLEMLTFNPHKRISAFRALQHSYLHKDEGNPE
compound,measurement,setting,value
COc1cc(-c2nc3ccc(F)cc3c(=O)[nH]2)cc(OC)c1OCC(=O)N1CCN(c2ccc(Nc3ncc4cc(C(=O)N(C)C)n(C5CCCC5)c4n3)nc2)CC1,IC50,[1],85.1 nM
same,Activity,[2],11.4%
same,Activity,[3],1.17%
same,Activity,[4],60.6%
same,Activity,[5],Dose-dependent-effect
same,inhibition in vivo at 25 mg/kg,[6],67.8%
same,Activity,[7],Dose-dependent-effect
same,Activity,[8],Dose-dependent-effect
same,Activity,[9],Active
same,Activity,[10],Non-toxic
same,Activity,[11],1.06%
same,Activity,[12],16.9%
same,Activity,[13],3.41%
same,Activity,[14],7.15%
same,Activity,[15],Non-toxic
same,Activity,[16],Time-dependent-effect
same,Activity,[17],Active
same,Activity,[18],Active
same,Activity,[19],Non-toxic
same,Vd,[20],14.1 L/kg
same,MRT inf,[21],3.04 h
same,AUC(0-inf),[22],3860 ng·h/mL
same,Activity,[23],Active
same,Activity,[24],Active
same,Activity,[25],Non-toxic
same,Activity,[26],71.1%
same,Activity,[27],Dose-dependent-effect
same,Activity,[28],3.07%
same,Activity,[29],Active
same,IC50,[30],4010 nM
same,clearance,[31],22.3 mL/min/kg
same,Activity,[32],Active
same,Activity,[33],Active
same,Activity,[34],15.8%
same,Activity,[35],Active
same,Activity,[36],18.8%
